The test system of one data set is HCT116 cells. Briefly: MTT cytotoxicity assay. Format: cell-based, human. The settings on record: for Effect on cell viability up to 10 µM: 24 h, peptide up to 10 µM; for LD50 (peptide concentration sufficient to kill 50% of the peptide-treated cells): 24 h incubation, 0.05–50 µM, from regression curves of cell viability, triplicate. On the procedure: (§1) The cytotoxicity of the selected MP analogs, MP-RIP and RIP-MP, was determined against two human cell lines. The viability of HT29 and HCT116 cells incubated with various concentrations of MP-RIP and RIP-MP was assessed by the MTT assay (Figure 4). […] Moreover, based on the regression curves of cell viability, lethal doses of MP analogs sufficient to kill 50% of the peptide-treated cells (LD50) were calculated. […] The viability of the HT29 cells indicates relatively low cytotoxicity of both analogs at a concentration corresponding to the MIC value against S. aureus. In the case of HCT116 cells, the above relationships were less evident.
(§2) Human cell lines HT29 (ATCC cat. # HTB-38) and HCT116 (ATCC cat. # CCL-247) were cultured in McCoy (HT29) or Dulbecco’s Modified Eagle’s (DMEM) medium (HCT116), supplemented with 10% fetal bovine serum (FBS), penicillin (100 U/mL) and streptomycin (100 µg/mL). Cultures were conducted at 37 °C in humidified atmosphere of 5% CO2. Cells were cultured for 24 h before initiation of the experiments. The cell viability was determined by the 3-(4, 5-dimethylthazol-2-yl)-2, 5-diphenyl tetrazolium bromide (MTT) assay. Briefly, HT29 or HCT116 cells were seeded in 96-well plates to a density of 10^5 cells/well in 0.2 mL of above-specified culture media. After 24 h, the following concentrations of peptides were added to wells: 0.05, 0.1, 0.5, 1, 5, 10, 25, 50 µM. As a negative control, cells were treated with 0.9% NaCl. After 24 h of incubation (5% CO2, 37 °C), 15 µL MTT solution was added into each well to reach the final concentration of […]. After further incubation for 2 h (5% CO2, 37 °C) the cells were centrifuged for 3 min at 4 °C and the medium was removed. Formazan crystals present in mitochondria of metabolically active cells were dissolved with 100 μL of dimethylsulfoxide (DMSO), and the dye concentration was determined at 570 nm wavelength. Cell viability was expressed as a percentage (mean value ± SEM) of those cells treated with 0.9% NaCl as negative control. Lethal doses, which correspond to peptide concentrations sufficient to kill 50% of the peptide-treated cells (LD50), were determined with GraphPad Prism 7.0 software (GraphPad Software Inc., La Jolla, CA, USA). The assay was performed in triplicate.
In general terms: Formazan colour is commonly taken as a measure of viable cells.

Another data set deals with HT29 cells. Kind of data set: MTT cytotoxicity assay. Format: cell-based, human. Particulars: for Effect on cell viability up to 10 µM: 24 h, peptide up to 10 µM; for LD50 (peptide concentration sufficient to kill 50% of the peptide-treated cells): 24 h incubation, 0.05–50 µM, from regression curves of cell viability, triplicate. The method, then:
as §1, §2

Data set [1] relates to Pseudomonas aeruginosae NCTC 6749. Kind of data set: microbe, parasite or virus in culture. Format: cell-based. Particulars: broth microdilution (CLSI), Mueller–Hinton broth, 37 °C, peptide 0.125 to […], no visible growth, triplicate. The method, then: (§3) Antimicrobial activity of peptides was examined against three reference strains: Staphylococcus aureus NCTC 4163, Escherichia coli NCTC 8196 and Pseudomonas aeruginosae NCTC 6749 dedicated for the determination of antibacterial activity. The bacterial strains were stored in glycerol stock (Sigma-Aldrich, St. Louis, MO, USA) at −80 °C. Before testing, the strains were cultured aerobically in Tryptic Soy Agar (BD DIFCO, Franklin Lakes, NJ, USA) at 37 °C for 20 h. The susceptibility of microorganisms to the peptides was determined by the broth microdilution assay according to the procedures outlined by CLSI [49]. […] In order to prepare the bacterial suspension, an overnight culture of bacteria in Tryptic Soy Broth (BD DIFCO, Franklin Lakes, NJ, USA) was diluted in sterile saline to a final concentration of approximately 10^7 CFU/mL of bacteria. Aliquots (5 µL) of bacterial suspension were added to each peptide solution. The sterility control (containing the tested peptide in broth) and the growth control (containing the reference strain in broth without the tested peptide) were also set up. The plates were incubated at 37 °C under aerobic conditions. The results are expressed as the minimal inhibitory concentration (MIC) of the compounds in question. The MIC was defined as the lowest concentration at which no visible growth of bacteria (no turbidity) was observed. The assay was performed in triplicate.
For orientation: Broth dilution looks for growth in wells or tubes with falling amounts of substance.

For data set [2] the following is noted: cited from earlier work. The source says: However, comparing their cytotoxic properties with other MP analogs known from the previous literature reports appears to be difficult due to the different cell lines used in cytotoxicity assays.
Data set [3] is described as follows: Circular dichroism spectroscopy, relative α-helix fraction. In kind it is physicochemical. Particulars: CD, peptide 0.15 mg/mL, 25 °C, three scans averaged; for Relative α-helix fraction (fH), 0.1 M Tris + 50 mM SDS: 0.1 M Tris buffer pH 7.01 + 50 mM SDS, from mean residue ellipticity at 222 nm; for Relative α-helix fraction (fH), water / Relative α-helix fraction (fH), 50% TFE: from mean residue ellipticity at 222 nm (Rohl and Baldwin). The method, then:
Circular dichroism spectroscopy was applied to evaluate the conformational changes of peptides induced by membrane-mimetic environments. The secondary structures of MP and some of its MP analogs (Table 4) were determined in water, 50% 2,2,2-trifluoroethanol (TFE) and 0.1 M Tris buffer with the addition of 50 mM SDS. The relative α-helix fraction (fH) values presented in Table 4, calculated from the values of mean residue ellipticity at 222 nm, reflect the ability of peptides to adopt helical structure in the tested environments.
Circular dichroism (CD) spectra of peptides were recorded on a Jasco J-815 spectropolarimeter (Jasco Int. Co., Ltd., Tokyo, Japan). The CD spectra were acquired for peptides in a concentration of 0.15 mg/mL in water, 50% 2,2,2-trifluoroethanol (TFE) or 0.1 M tris(hydroxymethyl)aminomethane (Tris) buffer (pH 7.01) with the addition of 50 mM SDS (sodium dodecylsulphate) in 0.1 cm path length cuvettes. Measurements were taken at 25 °C in a spectral range of 193–260 nm with a bandwidth of 1 nm and response of 1 s. The spectra were averaged after three scans. Ellipticity was measured in mdeg units and converted to mean residue ellipticity (Θ). The relative helix content (fH) was calculated from the mean residue ellipticity values at 222 nm using the method proposed by Rohl and Baldwin [50] and described previously. Helical wheel projections (Figure 3) were made with HeliQuest https://heliquest.ipmc.cnrs.fr/ (accessed on 1 June 2022).

The test system of data set [4] is Escherichia coli NCTC 8196. Briefly: microbe, parasite or virus in culture. Particulars: broth microdilution (CLSI), Mueller–Hinton broth, 37 °C, peptide 0.125 to […], no visible growth, triplicate. Format: cell-based. The method, then:
as §3

Data set [5] relates to Staphylococcus aureus NCTC 4163. Briefly: microbe, parasite or virus in culture. Format: cell-based. Particulars: broth microdilution (CLSI), Mueller–Hinton broth, 37 °C, peptide 0.125 to […], no visible growth, triplicate. The method, then:
as §3

Converted amounts (≈) assume the structure as drawn. Ends that are not written are not given here. A value given as a limit tells only on which side of the number the result lay.

Turning to YSPWTNFINLKALAALAKKIL-NH2 [RIP-MP], in the data set with HCT116 cells, the “Effect on cell viability up to 10 µM” value is “did not substantially affect the viability” and the “LD50 (peptide concentration sufficient to kill 50% of the peptide-treated cells)” value is on record as 17.0 µM. For the same compound, in the data set with HT29 cells, the “Effect on cell viability up to 10 µM” value was “did not substantially affect the viability” and the “LD50 (peptide concentration sufficient to kill 50% of the peptide-treated cells)” value amounted to 30.2 µM. Besides, the “MIC P. aeruginosae” value in data set [1] was greater than 256 µg/mL.

With “LIKKALAALAKLNI-NH2 [retroMP, reference compound]”, in data set [2], the “Fold lower cytotoxicity than MP” value is 3.5 fold. In addition, in data set [3], the “Relative α-helix fraction (fH), 0.1 M Tris + 50 mM SDS” value was found to be 0.16 and the “Relative α-helix fraction (fH), water” value stood at 0.19. Moreover, the “MIC E. coli” value in data set [4] is 256 µg/mL. Further, in data set [5], the “MIC S. aureus” value was greater than 256 µg/mL. In addition, the “MIC P. aeruginosae” value in data set [1] was 256 µg/mL.

Turning to `CC[C@H](C)[C@H](NC(=O)[C@H](CCCCN)NC(=O)CNC(=O)[C@H](CC(C)C)NC(=O)[C@H](CC(C)C)NC(=O)[C@H](Cc1ccc(O)cc1)NC(=O)CNC(=O)[C@H](C)N)C(=O)N[C@@H](CC(N)=O)C(=O)N[C@@H](CC(C)C)C(=O)N[C@@H](CCCCN)C(=O)N[C@@H](C)C(=O)N[C@@H](CC(C)C)C(=O)N[C@@H](C)C(=O)N[C@@H](C)C(=O)N[C@@H](CC(C)C)C(=O)N[C@@H](C)C(=O)N[C@@H](CCCCN)C(=O)N[C@@H](CCCCN)C(=O)N[C@H](C(=O)N[C@@H](CC(C)C)C(=O)N[C@@H](Cc1ccc(O)cc1)C(=O)N[C@@H](CCCCN)C(=O)N1CCC[C@H]1C(=O)N[C@H](C(=O)N[C@H](C(=O)N[C@@H](CC(N)=O)C(=O)N[C@@H](Cc1ccccc1)C(N)=O)[C@@H](C)O)[C@@H](C)CC)[C@@H](C)CC` [TP10-[Lys^2, Ile^4] RIP], in data set [3], the “Relative α-helix fraction (fH), 0.1 M Tris + 50 mM SDS” value worked out at 0.31; the “Relative α-helix fraction (fH), 50% TFE” value is 0.29; the “Relative α-helix fraction (fH), water” value was 0.08. Further, the “MIC E. coli” value in data set [4] is greater than 256 µg/mL. For the same compound, the “MIC S. aureus” value in data set [5] was 128 µg/mL (≈ 42 µM). The “MIC P. aeruginosae” value in data set [1] was greater than 256 µg/mL.

Turning to `CC[C@H](C)[C@H](NC(=O)[C@H](CCCCN)NC(=O)CNC(=O)[C@H](CC(C)C)NC(=O)[C@H](CC(C)C)NC(=O)[C@H](Cc1ccc(O)cc1)NC(=O)CNC(=O)[C@H](C)N)C(=O)N[C@@H](CC(N)=O)C(=O)N[C@@H](CC(C)C)C(=O)N[C@@H](CCCCN)C(=O)N[C@@H](C)C(=O)N[C@@H](CC(C)C)C(=O)N[C@@H](C)C(=O)N[C@@H](C)C(=O)N[C@@H](CC(C)C)C(=O)N[C@@H](C)C(=O)N[C@@H](CCCCN)C(=O)N[C@@H](CCCCN)C(=O)N[C@H](C(=O)N[C@@H](CC(C)C)C(=O)N[C@@H](Cc1ccc(O)cc1)C(=O)N[C@@H](CO)C(=O)N1CCC[C@H]1C(=O)N[C@@H](Cc1c[nH]c2ccccc12)C(=O)N[C@H](C(=O)N[C@@H](CC(N)=O)C(=O)N[C@@H](Cc1ccccc1)C(N)=O)[C@@H](C)O)[C@@H](C)CC` [TP10-RIP], in data set [3], the “Relative α-helix fraction (fH), 0.1 M Tris + 50 mM SDS” value stood at 0.25; the “Relative α-helix fraction (fH), 50% TFE” value is reported as 0.27; the “Relative α-helix fraction (fH), water” value is listed as 0.08. The “MIC E. coli” value in data set [4] is greater than 256 µg/mL. Moreover, in data set [5], the “MIC S. aureus” value is 128 µg/mL (≈ 41.6 µM). Further, the “MIC P. aeruginosae” value in data set [1] is greater than 256 µg/mL.

As for INLKALAALAKKILYSPWTNF-NH2 [MP-RIP], the “Effect on cell viability up to 10 µM” value in the data set with HCT116 cells and in the data set with HT29 cells was “did not substantially affect the viability” in each case. In addition, the entries for the “LD50 (peptide concentration sufficient to kill 50% of the peptide-treated cells)” value in the data set with HCT116 cells and in the data set with HT29 cells were 13.2 µM and 38.0 µM, respectively. The “MIC P. aeruginosae” value in data set [1] was greater than 256 µg/mL.

These data come from article PMC9332802, “Structure–Activity Relationship of New Chimeric Analogs of Mastoparan from the Wasp Venom Paravespula lewisii” (International Journal of Molecular Sciences, 2022).
